Laboratory results: patent US20040018150A1, “Prodrugs of phosphonate nucleotide analogues and methods for selecting and making same” (priority 2003, published 2004)

Legend:
[1] = Stability in human plasma; format: in vitro ADME
Experimental: (§1) The in vitro metabolism and stability of separated diastereomers were determined in PLCE, MT-2 extract and human plasma. A biological sample listed below, 80 μL, was transferred into a screw-capped centrifuge tube and incubated at 37° C. for 5 min. A solution containing 0.2 mg/mL of the test compound in a suitable buffer, 20 μL, was added to the biological sample and mixed. The reaction mixture, 20 μL, was immediately sampled and mixed with 60 μL of methanol containing 0.015 mg/mL of 2-hydroxymethylnaphthalene as an internal standard for HPLC analysis. The sample was taken as the time-zero sample. Then, at specific time points, the reaction mixture, 20 μL, was sampled and mixed with 60 μL of methanol containing the internal standard. The mixture thus obtained was centrifuged at 15,000 G for 5 min and the supernatant was analyzed with HPLC under the conditions described below.
(3) Human plasma (pooled normal human plasma from George King Biomedical Systems, Inc.)
In the study for human plasma, the test compound was dissolved in TBS. TBS (tris-buffered saline, Sigma) contains 0.05 M Tris, 0.0027 M potassium chloride, and 0.138 M sodium chloride. pH 7.5 at 37° C.
(§2) The HPLC analysis was carried out under the following conditions.

[2] = Stability / hydrolysis in MT-2 cell extract; format: in vitro ADME
Experimental: as §1
(2) MT-2 cell extract was prepared from MT-2 cells according to the published procedure [A. Pompon, I. Lefebvre, J.-L. Imbach, S. Kahn, and D. Farquhar, “Antiviral Chemistry & Chemotherapy”, 5:91-98 (1994)] except for using HEPES buffer described below as the medium.
In the study for MT-2 cell extracts, the test compound was dissolved in HEPES buffer. HEPES buffer contains 0.010 M HEPES, 0.05 M potassium chloride, 0.005 M magnesium chloride, and 0.005 M dl-dithiothreitol. pH 7.4 at 37° C.
as §2

[3] = test system: PLCE (porcine liver carboxyesterase); assay: in vitro; format: in vitro ADME
Experimental: as §1
(1) PLCE (porcine liver carboxyesterase from Sigma, 160 u/mg protein, 21 mg protein/mL) diluted 20 fold with PBS (phosphated-buffered saline).
In the study for PLCE, the test compound was dissolved in PBS. PBS (phosphate-buffered saline, Sigma) contains 0.01 M phosphate, 0.0027 M potassium chloride, and 0.137 M sodium chloride. pH 7.4 at 37° C.
as §2

[4] = Incubation of radiolabeled PMPA prodrugs or PMPA in human whole blood; metabolites in plasma, PBMCs and RBCs; format: in vitro ADME; conditions: for Metabolites (% of Total Peak Area): PMPA: human blood, 1 h
Experimental: After 1 hour, plasma, red blood cells (RBCs) and peripheral blood mononuclear cells (PBMCs) were isolated and analyzed by HPLC with radiometric detection.

[5] = Excretion and tissue distribution of radiolabelled prodrug in dogs; conditions: for % Dose / Conc.: dogs, oral 10 mg-eq. PMPA/kg
Experimental: Plasma and peripheral blood mononuclear cells (PBMCs) were obtained over the 24-hr period. Urine and feces were cage collected over 24 hr. At 24 h after the dose, the animals were sacrificed and tissues removed for analysis. Total radioactivity in tissues was determined by oxidation and liquid scintillation counting.

## CC(C)OC(=O)OCOP(=O)(CO[C@H](C)Cn1cnc2c(N)ncnc21)OCOC(=O)OC(C)C.O=C(O)/C=C/C(=O)O [TDF, tenofovir disoproxil fumarate, reference compound]
[1]; 37° C., TBS pH 7.5
  Human Plasma Stability (HP) product: monoPOC PMPA
[1]; human, plasma
  Stability T 1/2 Human Plasma: 0.41 min
[1]; human, plasma, pH 7.5
  Human Plasma Stability (HP) t1/2: 0.41
[2]
  Stability T 1/2 MT-2 Cell Extract: 70.7 min
[2]; 37° C., HEPES buffer pH 7.4
  MT-2 extract hydrolysis product: monoPOC PMPA
[2]; pH 7.4
  MT-2 extract hydrolysis rate t1/2: 70.7 min
[3]; 37° C., PBS pH 7.4
  PLCE hydrolysis product: MonoPOC PMPA
[3]; pH 7.4
  PLCE hydrolysis rate t1/2: < 0.14 min
[4]
  Metabolites (% of Total Peak Area): PMPApp: 18%
[4]; PBMC
  Metabolites (% of Total Peak Area): PMPA: 50%
[4]; Plasma/FP
  Metabolites (% of Total Peak Area): PMPA: 11%
[4]; RBC/FP
  Metabolites (% of Total Peak Area): PMPA: 93%
[5]; Abdominal fat, 24 h
  % Dose: 0.00%
  Conc.: 0.16 ug-eq/g
[5]; Adrenal Gland, 24 h
  % Dose: 0.00%
  Conc.: 1.90 ug-eq/g
[5]; Axillary Lymph Nodes, 24 h
  % Dose: 0.00%
  Conc.: 0.37 ug-eq/g
[5]; Bile, 24 h
  % Dose: 0.00%
  Conc.: 9.63 ug-eq/g
[5]; Bone Marrow, 24 h
  % Dose: 0.00%
  Conc.: 0.20 ug-eq/g
[5]; Brain, 24 h
  % Dose: 0.00%
  Conc.: <LOD
[5]; Cerebrospinal Fluid, 24 h
  % Dose: 0.00%
  Conc.: <LOD
[5]; Duodenum, 24 h
  % Dose: 0.49%
  Conc.: 4.96 ug-eq/g
[5]; Eye (L + R), 24 h
  % Dose: 0.00%
  Conc.: 0.06 ug-eq/g
[5]; Feces, collected over 24 hr
  % Dose: 40.96%
[5]; Femoral Bone, 24 h
  % Dose: 0.00%
  Conc.: 0.08 ug-eq/g
[5]; Gall bladder, 24 h
  % Dose: 0.00%
  Conc.: 3.58 ug-eq/g
[5]; Heart, 24 h
  % Dose: 0.03%
  Conc.: 0.46 ug-eq/g
[5]; Ileum, 24 h
  % Dose: 0.01%
  Conc.: 0.50 ug-eq/g
[5]; Iliac Lymph Nodes, 24 h
  % Dose: 0.00%
  Conc.: 0.51 ug-eq/g
[5]; Inguinal Lymph Nodes, 24 h
  % Dose: 0.00%
  Conc.: 0.28 ug-eq/g
[5]; Jejunum, 24 h
  % Dose: 1.34%
  Conc.: 3.01 ug-eq/g
[5]; Kidney, 24 h
  % Dose: 4.58%
  Conc.: 87.90 ug-eq/g
[5]; Large Intestine, 24 h
  % Dose: 1.63%
  Conc.: 5.97 ug-eq/g
[5]; Liver, 24 h
  % Dose: 12.40%
  Conc.: 38.30 ug-eq/g
[5]; Lungs, 24 h
  % Dose: 0.03%
  Conc.: 0.53 ug-eq/g
[5]; Mesenteric Lymph Nodes, 24 h
  % Dose: 0.00%
  Conc.: 1.20 ug-eq/g
[5]; PBMC
  % Dose: 0.00%
[5]; Pancreas, 24 h
  % Dose: 0.00%
  Conc.: 0.57 ug-eq/g
[5]; Pituitary Gland, 24 h
  % Dose: 0.00%
  Conc.: 0.23 ug-eq/g
[5]; Plasma at 0.25 h
  Conc.: 3.68 ug-eq/g
[5]; Plasma at 24 h
  % Dose: 0.00%
  Conc.: 0.20 ug-eq/g
[5]; Prostate, 24 h
  % Dose: 0.00%
  Conc.: 0.23 ug-eq/g
[5]; Salivary Gland (L + R), 24 h
  % Dose: 0.00%
  Conc.: 0.45 ug-eq/g
[5]; Skeletal Muscle, 24 h
  % Dose: 0.00%
  Conc.: 0.11 ug-eq/g
[5]; Skin, 24 h
  % Dose: 0.00%
  Conc.: 0.13 ug-eq/g
[5]; Spinal Cord, 24 h
  % Dose: 0.00%
  Conc.: <LOD
[5]; Spleen, 24 h
  % Dose: 0.00%
  Conc.: 0.63 ug-eq/g
[5]; Stomach, 24 h
  % Dose: 0.11%
  Conc.: 1.92 ug-eq/g
[5]; Testes (L + R), 24 h
  % Dose: 0.02%
  Conc.: 1.95 ug-eq/g
[5]; Thyroid Gland, 24 h
  % Dose: 0.00%
  Conc.: 0.30 ug-eq/g
[5]; Total GI Tract Contents, 24 h
  % Dose: 5.61%
[5]; Total Recovery, 24 h
  % Dose: 81.10%
[5]; Urine, collected over 24 hr
  % Dose: 23.72%
[5]; Whole Blood, 24 h
  % Dose: 0.00%
  Conc.: 0.85 ug-eq/g
[5]; dog, in vivo, po
  main species observed in plasma: the parent drug
  prodrug concentration in the plasma: below the level of assay detection
MT-2 cells
  CC50: 70 µM
